Measured values: US20090286693A1, “MICROARRAYS OF TAGGED COMBINATORIAL TRIAZINE LIBRARIES” (New York University, NYU Medical Center, Department of …, priority 2001, published 2009)
Like-named read-outs stand apart in the source and are kept apart here.

Assays:
[1] = target: T1, human IgG; assay: SPR (Biacore X) competitive binding with protein A on CM-5 chip immobilized with human IgG, dissociation constants
T1 construct: Kd/M; other: SPR, small molecule premixed with protein A, IgG immobilized; averaged dissociation constant; other: protein A with IgG alone
Description: Dissociation constants were determined for each of the compounds selected using SPR on a Biacore X system with BiaEvaluation software. Competitive binding experiments were performed with differentially proportioned mixtures of a small molecule and protein A on a CM-5 chip immobilized with human IgG (see Supporting Information) (Table 1), which also ensures the small molecule binding to the same Scheme 2. General Experimental Scheme a (a) Directed immobilization of triazine libraries to generate a high-density microarray. (B) Incubation with a fluorescently labeled protein. (C) Removal of the unbound protein through washing. (D) Detection with instantaneous deconvolution of positive hits. (E) Assessing efficacy of hits using SPR. An averaged dissociation constant of 1.25×10−9 M was obtained for protein A with IgG alone. Further assessments made by passing 2.5 iM of a small molecule against the IgG surface were also performed to give measurable association levels that correlate with binding affinities (Table 1). Immobilizing the small molecules and applying IgG in the solution phase obtained equivalent binding measurements; however, by employing the competitive binding method described, a single chip surface may be used for screening against multiple potential small-molecule ligands, economizing the process. A φ2 value of <10 was obtained for all Kd measurements, denoting good statistical validity of the results obtained.
Surface Plasmon Resonance (SPR) Determination of Dissociation Constants. Maintenance. SPR measurements were made on a Biacore X system (Biacore AB, Uppsala, Sweden). Various maintenance steps were performed to ensure that the instrument was kept in good working conditions. The integrated flow cell was washed, sanitized, and maintained using standard cleansing reagents on a weekly basis. Calibration checks were performed quarterly to ensure that the signal was of good quality, and the instrument was kept separate from other equipments to prevent interference. When not in use, the system was docked with a spare chip and flushed with water at a low flow rate of 5 iL/min to prevent clogging. The system was primed at least twice before use or for the purpose of initiating a new buffer type. A desorb process was performed every 2 days during periods of active use to remove proteins or other contaminating compounds that may have accumulated within the flow cell.
Procedures. Various approaches were conceived to assess the Kd values of the interactions. One successful method immobilized the small molecule on the CM-5 sensor chips and ran them through varying concentrations of IgG. […] We conceived that it would be easier to immobilize IgG on the surface and apply differing proportioned mixtures of the “hit” small molecule and protein A (Amersham Biosciences, U.K.). […]

[2] = tested on: T2, human IgG; assay: Small-molecule microarray screening with Cy3-labeled human IgG; assay type: binding; details: for microarray hit strength in words: based on spot intensity; for array signal (fluorescence units): spot intensity, background subtracted
T2 construct: array signal (fluorescence units); other: spot intensity, background subtracted; human IgG-Cy3; array signal class; other: symbol in brackets after the fluorescence units; microarray hit strength in words; other: based on spot intensity, human IgG-Cy3; fused on or other part: Cy3 dye coupled through the NHS ester (chemical label, no fusion)
Text: Human IgG was fluorescently labeled with Cy3-NHS to allow for sensitive visualization of small molecule-IgG interactions on the array. […] The resulting scans were typical to that seen in FIG. 1. […] The spot intensities of these molecules are given in Table 1, with the background subtracted accordingly.
Preparation and Analysis of Small-Molecule Arrays. Preparation of Slides Activated with N-Hydroxysuccinimide Esters. 2 Briefly, 25 mm×75 mm slides (Fisher Scientific) were cleaned in piranha solution (sulfuric acid/hydrogen peroxide, 7:3). An amine functionality was incorporated onto the slides by silanization using a solution of 3% (aminopropyl)triethoxysilane in 2% water and 95% ethanol. After 1-2 h of soaking, the slides were washed with ethanol and cured at 150° C. for at least 2 h. Subsequently, the amine slides were incubated in a solution of 180 mM succinic anhydride in DMF for 30 min thereafter were transferred to a boiling water bath for 2 min. The slides were washed again in ethanol and dried under a stream of nitrogen. The carboxylic acid moieties now created on the slide surface were activated with a solution of 100 mM of TBTU (O-(benzotriazol-1-yl)-N,N,N,N-tetramethyluronium tetrafluoroborate), 200 mM DIEA, and 100 mM N-hydroxysuccinimide in DMF, thus generating the NHS-derivatized slides.
Microarray Printing. By individually weighing the solid compounds, triazine stock solutions were prepared to 2.5 mM in DMF, and 40-iL preparations were distributed across seven 384-well plates to give a total of 2688 distinct and pure compounds. Slides were spotted on an ESI SMA arrayer (Ontario, Canada) with the printhead installed with eight ArrayIt Chipmaker 7 Microspotting pins (Telechem, U.S.A.). Printing was performed in duplicate, and the pins were washed and sonicated in ethanol between samples. A repotting blotting process was also performed on plain slides to ensure spot uniformity. An additional solution of 0.2 mM Cy3-NH2 11 reference was spotted at the ends of the grids using a final eighth plate.
After spotting, the slides were allowed to sit for at least 12 h in situ and then were quenched by washing in an 1% ethanolamine (in DMF) bath for 2 h. After rinsing with Journal of Combinatorial Chemistry Discovery of Small-Molecule Ligands of Human IgG E ethanol and drying, the arrayed slides were stored in a desiccator at 4° C. The slides were stable for extended periods and, when required, were simply brought to room temperature.
Protein Screening with Labeled Human IgG. Proteins were tagged with Cy3-NHS by incubating 5 iL of 20 mM Cy3-NHS (Amersham Biosciences, U.K.) with 200 ig of human IgG (Calbiochem, U.S.A.) in a sodium bicarbonate buffer at pH 8. After 1 h of incubation, the labeled protein was separated from the free dye by a NAP-5 Sephadex G-50 column (Amersham Biosciences, U.K.). Before incubation with the labeled protein, the slides were preblocked to remove any nonspecific binding by soaking in 1% BSA in PBS for 1 h. After a brief rinsing with water, the slides were incubated with the labeled IgG.
A 1000-fold dilution of the above protein preparation was used as the incubation solution in a PBS buffer containing 1% BSA with the small-molecule arrays using the cover slip method for 30 min in a humid incubation chamber. Excess IgG was then removed by washing with distilled water. The background was further reduced using repeated washes with PBST.
Slide Scanning and Analysis. Slides were scanned on an ArrayWoRx scanner (Applied Precision, U.S.A.). Excel sheets were prepared to assign various compounds to specific numberings that could be readily tallied with reference numbers generated by the program. The ArrayWoRx software allows generation of reference files in which the spotting arrangement and the program overlay the spots on the results obtained, allowing compounds to be assigned in a rational fashion to every position. […]

[3] = tested on: other fluorescently labeled proteins (unrelated to human IgG); assay: Control microarray screening with unrelated fluorescently labeled proteins; details: same slide screened with other fluorescently labeled proteins; no positive binding
[4] = SPR, small molecule premixed with protein A, IgG immobilized, read-out: Kd/M

| Kd [1, 4] | specificity of binding toward human IgG [3] | Compound | microarray hit strength in words [2] | array signal (fluorescence units) [2] | Kd ([1]; protein A with IgG alone, read-out: averaged dissociation constant) |
| --- | --- | --- | --- | --- | --- |
| 151 µM |  | COc1ccc(CNc2nc(Nc3ccc(CC(=O)NCCOCCOCCN)cc3)nc(N3CCCCC3)n2)cc1 [APF29] | negative | < 10 fluorescence units |  |
|  |  | protein A: staphylococcal protein A (Amersham Biosciences), high molecular weight IgG ligand used as SPR competitor [reference compound] |  |  | 0.00125 µM |
| 4.35 µM | highly specific | NCCOCCOCCNC(=O)c1ccc(CNc2nc(NCC3CCCCC3)nc(NC3CCC3)n2)cc1 [AMD10] | strongest hits | 179 fluorescence units |  |
| 2.02 µM | highly specific | NCCOCCOCCNC(=O)c1ccc(CNc2nc(NCC3CCCCC3)nc(NC3CC4CCC3C4)n2)cc1 (stereo not drawn) [AMD03] | strongest hits | 185 fluorescence units |  |
